Reference: ChEMBL document CHEMBL5360601, “Discovery of Potent, Dual-Inhibitors of Diacylglycerol Kinases Alpha and Zeta Guided by Phenotypic Optimization” (ACS Med Chem Lett, 2023)
Activity calls are given as the source filed them. The calls are words filed in the database; no cut-off is given here.

How the values were obtained:
[1] = Metabolic stability in mouse liver microsomes assessed as parent compound remaining; assay type: ADME, Microsome
[2] = Metabolic stability in human liver microsomes assessed as parent compound remaining; assay type: ADME, Microsome
[3] = target: Diacylglycerol kinase alpha (Homo sapiens, UniProt P23743); assay: Inhibition of human DGK alpha using 1, 2-Dilauroyl-sn-glycerol as substrate by ADP-Glo assay
Sequence of Diacylglycerol kinase alpha (P23743 whole entry): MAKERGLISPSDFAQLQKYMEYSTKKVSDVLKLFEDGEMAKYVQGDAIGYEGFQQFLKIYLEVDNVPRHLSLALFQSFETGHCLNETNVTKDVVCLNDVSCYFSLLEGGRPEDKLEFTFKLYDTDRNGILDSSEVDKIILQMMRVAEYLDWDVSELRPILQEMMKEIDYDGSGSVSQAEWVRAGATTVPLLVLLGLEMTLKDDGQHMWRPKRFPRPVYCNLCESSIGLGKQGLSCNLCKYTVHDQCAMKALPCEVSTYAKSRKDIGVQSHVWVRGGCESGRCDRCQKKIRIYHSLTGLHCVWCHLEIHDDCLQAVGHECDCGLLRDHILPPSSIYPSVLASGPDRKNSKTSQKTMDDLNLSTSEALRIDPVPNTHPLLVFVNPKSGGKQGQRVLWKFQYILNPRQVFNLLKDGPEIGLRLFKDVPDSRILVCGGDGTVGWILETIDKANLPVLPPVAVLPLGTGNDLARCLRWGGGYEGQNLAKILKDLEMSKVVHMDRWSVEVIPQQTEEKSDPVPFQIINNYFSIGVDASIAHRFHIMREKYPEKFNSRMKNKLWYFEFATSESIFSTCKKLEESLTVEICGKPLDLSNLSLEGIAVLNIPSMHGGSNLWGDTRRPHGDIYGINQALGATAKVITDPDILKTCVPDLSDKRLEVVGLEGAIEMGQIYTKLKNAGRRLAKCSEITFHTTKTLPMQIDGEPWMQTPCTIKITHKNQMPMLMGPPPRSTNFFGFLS

[4] = target: Diacylglycerol kinase beta (Homo sapiens, UniProt Q9Y6T7); assay: Inhibition of human DGK beta using 1, 2-Dilauroyl-sn-glycerol as substrate by ADP-Glo assay
[5] = target: Diacylglycerol kinase gamma (Homo sapiens, UniProt P49619); assay: Inhibition of human DGK gamma using 1, 2-Dilauroyl-sn-glycerol as substrate by ADP-Glo assay
Sequence of Diacylglycerol kinase gamma (P49619 whole entry): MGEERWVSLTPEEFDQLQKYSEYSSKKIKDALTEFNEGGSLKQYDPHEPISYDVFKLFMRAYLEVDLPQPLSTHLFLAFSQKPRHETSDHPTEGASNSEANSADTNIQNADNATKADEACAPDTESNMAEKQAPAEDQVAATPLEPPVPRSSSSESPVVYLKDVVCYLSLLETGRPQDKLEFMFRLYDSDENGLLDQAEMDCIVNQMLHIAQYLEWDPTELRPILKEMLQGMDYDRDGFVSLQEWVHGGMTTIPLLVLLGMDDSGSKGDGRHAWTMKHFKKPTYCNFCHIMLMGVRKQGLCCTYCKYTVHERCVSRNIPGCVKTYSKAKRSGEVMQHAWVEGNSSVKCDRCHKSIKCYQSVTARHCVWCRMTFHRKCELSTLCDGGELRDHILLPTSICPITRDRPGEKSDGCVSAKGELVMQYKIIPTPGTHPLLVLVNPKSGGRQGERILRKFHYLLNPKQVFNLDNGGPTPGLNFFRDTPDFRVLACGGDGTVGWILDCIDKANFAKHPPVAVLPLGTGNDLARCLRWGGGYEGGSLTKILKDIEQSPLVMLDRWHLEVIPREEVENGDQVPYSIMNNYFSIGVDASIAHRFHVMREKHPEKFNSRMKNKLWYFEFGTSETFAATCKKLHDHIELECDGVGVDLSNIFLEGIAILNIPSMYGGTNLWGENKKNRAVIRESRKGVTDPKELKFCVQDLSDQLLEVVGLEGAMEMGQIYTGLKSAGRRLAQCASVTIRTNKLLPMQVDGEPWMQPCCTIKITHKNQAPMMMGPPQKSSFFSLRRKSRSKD

[6] = target: T1, Diacylglycerol kinase kappa (Homo sapiens, UniProt Q5KSL6); assay: Inhibition of human DGK kappa using 1, 2-Dilauroyl-sn-glycerol as substrate by ADP-Glo kinase assay
T1 sequence (Q5KSL6 whole entry): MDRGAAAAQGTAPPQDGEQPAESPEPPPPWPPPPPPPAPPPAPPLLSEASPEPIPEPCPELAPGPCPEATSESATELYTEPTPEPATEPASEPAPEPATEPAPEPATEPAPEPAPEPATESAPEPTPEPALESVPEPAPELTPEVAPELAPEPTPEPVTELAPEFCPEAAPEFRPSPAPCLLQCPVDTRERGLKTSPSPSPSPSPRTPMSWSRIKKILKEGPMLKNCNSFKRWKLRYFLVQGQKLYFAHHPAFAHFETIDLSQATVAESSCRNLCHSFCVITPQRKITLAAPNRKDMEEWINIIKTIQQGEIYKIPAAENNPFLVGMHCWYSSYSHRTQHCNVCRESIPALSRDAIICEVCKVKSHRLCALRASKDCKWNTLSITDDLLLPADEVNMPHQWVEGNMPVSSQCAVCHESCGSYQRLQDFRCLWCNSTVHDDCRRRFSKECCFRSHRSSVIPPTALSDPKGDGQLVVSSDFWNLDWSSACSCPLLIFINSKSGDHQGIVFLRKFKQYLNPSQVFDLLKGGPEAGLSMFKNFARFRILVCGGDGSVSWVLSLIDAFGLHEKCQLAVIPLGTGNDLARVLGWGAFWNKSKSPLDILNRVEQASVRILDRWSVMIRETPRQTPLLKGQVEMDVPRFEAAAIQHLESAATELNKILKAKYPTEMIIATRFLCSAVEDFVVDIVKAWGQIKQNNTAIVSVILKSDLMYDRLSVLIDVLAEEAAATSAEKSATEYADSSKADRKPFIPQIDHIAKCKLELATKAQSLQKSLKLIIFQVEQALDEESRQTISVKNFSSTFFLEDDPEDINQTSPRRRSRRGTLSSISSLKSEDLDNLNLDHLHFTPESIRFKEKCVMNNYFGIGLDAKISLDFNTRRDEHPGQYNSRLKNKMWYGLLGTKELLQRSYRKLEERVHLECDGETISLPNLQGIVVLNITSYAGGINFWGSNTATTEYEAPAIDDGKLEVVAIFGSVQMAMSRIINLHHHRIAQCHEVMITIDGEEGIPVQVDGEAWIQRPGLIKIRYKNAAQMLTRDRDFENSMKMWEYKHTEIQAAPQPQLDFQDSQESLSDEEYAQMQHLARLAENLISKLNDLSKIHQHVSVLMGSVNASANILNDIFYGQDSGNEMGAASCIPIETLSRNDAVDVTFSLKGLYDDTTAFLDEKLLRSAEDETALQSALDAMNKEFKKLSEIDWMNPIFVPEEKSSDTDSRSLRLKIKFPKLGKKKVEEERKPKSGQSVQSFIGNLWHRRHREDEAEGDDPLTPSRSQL

[7] = target: Diacylglycerol kinase zeta (Homo sapiens, UniProt Q13574); assay: Inhibition of human DGK zeta using 1, 2-Dilauroyl-sn-glycerol as substrate by ADP-Glo kinase assay
Sequence of Diacylglycerol kinase zeta (Q13574 whole entry): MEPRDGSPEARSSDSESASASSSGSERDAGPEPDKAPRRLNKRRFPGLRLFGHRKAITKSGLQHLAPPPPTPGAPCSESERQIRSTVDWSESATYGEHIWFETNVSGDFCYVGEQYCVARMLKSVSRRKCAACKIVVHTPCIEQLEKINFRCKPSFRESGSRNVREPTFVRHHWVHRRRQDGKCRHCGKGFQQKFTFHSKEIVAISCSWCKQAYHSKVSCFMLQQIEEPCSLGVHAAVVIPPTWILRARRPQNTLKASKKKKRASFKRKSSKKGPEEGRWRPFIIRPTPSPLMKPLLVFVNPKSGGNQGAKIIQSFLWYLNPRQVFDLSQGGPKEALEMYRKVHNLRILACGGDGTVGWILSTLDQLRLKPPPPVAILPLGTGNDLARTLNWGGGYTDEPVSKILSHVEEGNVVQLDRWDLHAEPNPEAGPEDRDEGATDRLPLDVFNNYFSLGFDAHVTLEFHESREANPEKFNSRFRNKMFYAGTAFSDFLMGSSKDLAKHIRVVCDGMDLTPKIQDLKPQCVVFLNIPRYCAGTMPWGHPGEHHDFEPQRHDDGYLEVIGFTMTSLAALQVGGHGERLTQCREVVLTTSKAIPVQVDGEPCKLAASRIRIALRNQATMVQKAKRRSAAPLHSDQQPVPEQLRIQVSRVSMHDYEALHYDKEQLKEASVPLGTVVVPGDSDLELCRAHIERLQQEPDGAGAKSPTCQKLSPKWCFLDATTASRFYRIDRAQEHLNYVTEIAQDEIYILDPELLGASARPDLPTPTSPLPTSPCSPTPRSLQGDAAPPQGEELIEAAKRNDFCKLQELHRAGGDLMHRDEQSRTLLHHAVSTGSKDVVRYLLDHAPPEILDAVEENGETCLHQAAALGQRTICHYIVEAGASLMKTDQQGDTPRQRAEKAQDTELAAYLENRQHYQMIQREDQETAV

[8] = target: Diacylglycerol kinase iota (Homo sapiens, UniProt O75912); assay: Inhibition of human DGK iota using 1, 2-Dilauroyl-sn-glycerol as substrate by ADP-Glo kinase assay
Sequence of Diacylglycerol kinase iota (O75912 whole entry): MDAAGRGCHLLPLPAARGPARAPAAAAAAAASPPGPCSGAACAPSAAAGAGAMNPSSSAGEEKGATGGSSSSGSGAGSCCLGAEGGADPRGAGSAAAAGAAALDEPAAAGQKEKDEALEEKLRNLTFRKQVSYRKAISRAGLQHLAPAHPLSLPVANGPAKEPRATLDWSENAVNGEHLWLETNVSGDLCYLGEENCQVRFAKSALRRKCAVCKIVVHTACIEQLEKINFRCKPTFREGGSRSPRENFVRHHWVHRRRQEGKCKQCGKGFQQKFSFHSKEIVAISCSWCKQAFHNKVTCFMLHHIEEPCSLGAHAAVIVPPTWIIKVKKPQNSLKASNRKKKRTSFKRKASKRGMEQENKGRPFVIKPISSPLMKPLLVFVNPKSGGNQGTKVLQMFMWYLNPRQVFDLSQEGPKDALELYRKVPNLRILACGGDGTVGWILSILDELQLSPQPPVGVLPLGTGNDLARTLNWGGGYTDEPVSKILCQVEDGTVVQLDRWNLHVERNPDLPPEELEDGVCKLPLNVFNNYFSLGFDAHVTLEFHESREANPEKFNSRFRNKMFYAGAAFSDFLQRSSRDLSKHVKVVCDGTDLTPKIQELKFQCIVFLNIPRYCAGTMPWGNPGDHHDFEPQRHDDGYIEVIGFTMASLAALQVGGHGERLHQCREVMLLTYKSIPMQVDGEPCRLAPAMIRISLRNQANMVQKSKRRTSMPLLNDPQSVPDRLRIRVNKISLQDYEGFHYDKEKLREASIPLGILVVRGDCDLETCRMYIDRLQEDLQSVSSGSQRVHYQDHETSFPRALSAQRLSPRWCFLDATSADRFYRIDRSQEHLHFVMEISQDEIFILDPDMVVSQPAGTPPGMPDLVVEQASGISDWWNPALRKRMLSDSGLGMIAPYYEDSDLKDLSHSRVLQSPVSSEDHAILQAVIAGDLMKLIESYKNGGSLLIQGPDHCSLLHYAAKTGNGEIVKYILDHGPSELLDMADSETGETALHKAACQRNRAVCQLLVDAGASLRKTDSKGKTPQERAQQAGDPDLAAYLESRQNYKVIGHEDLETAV

Mus musculus [9] = assay: Immunostimulatory activity in OT-1 mouse model assessed as increase in activated effector T-cells at 10 mg/kg measured after 24 hrs by flow cytometry analysis; assay type: functional, organism-based
Mus musculus [10] = species: Mus musculus; assay: Immunostimulatory activity in OT-1 mouse model assessed as increase in activated effector T-cells measured after 24 hrs in presence of SIINFEKL antigen by flow cytometry analysis; assay type: functional, organism-based; details: dose 1-10 mg/kg
[11] = AUClast in C57BL6 mouse at 1 mg/kg, iv administered as bolus dose measured upto 72 hrs by LC/MS/MS analysis; assay type: ADME, organism-based; design: dose 1 mg/kg, time < 72 hrs, route iv; details: in vivo
[12] = Half life in C57BL6 mouse at 1 mg/kg, iv administered as bolus dose measured upto 72 hrs by LC/MS/MS analysis; assay type: ADME, organism-based; details: in vivo
[13] = Clearance in C57BL6 mouse at 1 mg/kg, iv administered as bolus dose measured upto 72 hrs by LC/MS/MS analysis; assay type: ADME, organism-based; details: in vivo
[14] = Volume of distribution at steady state in C57BL6 mouse at 1 mg/kg, iv administered as bolus dose measured upto 72 hrs by LC/MS/MS analysis; assay type: ADME, organism-based; details: in vivo, read-out: Vdss
[15] = Cmax in C57BL6 mouse at 5 mg/kg, po administered as bolus dose measured upto 72 hrs by LC/MS/MS analysis; assay type: ADME, organism-based; design: dose 5 mg/kg, time < 72 hrs, route po; details: in vivo
[16] = Tmax in C57BL6 mouse at 5 mg/kg, po administered as bolus dose measured upto 72 hrs by LC/MS/MS analysis; assay type: ADME, organism-based; details: in vivo
[17] = AUClast in C57BL6 mouse at 5 mg/kg, po administered as bolus dose measured upto 72 hrs by LC/MS/MS analysis; assay type: ADME, organism-based; design: dose 5 mg/kg, time < 72 hrs, route po; details: in vivo
[18] = Oral bioavailability in C57BL6 mouse at 5 mg/kg administered as bolus dose measured upto 72 hrs by LC/MS/MS analysis; assay type: ADME, organism-based; details: in vivo
[19] = Inhibition of DGK in human whole blood cell assessed as increase in IFNgamma level incubated for 1 hr followed by anti-human CD3/ antiCD28 mAB stimulation and measure after 24 hrs by AlphaLISA assay; assay type: tissue-based
[20] = Inhibition of DGK in human whole blood cell assessed as increase in pERK level incubated for 1 hr followed by anti-human CD3 stimulation and measure after 15 mins by AlphaLISA assay; assay type: tissue-based
[21] = Inhibition of DGK in mouse T cell assessed as increase in IFNgamma level incubated for 1 hr by AlphaLISA assay; assay type: cell-based
Raji [22] = assay: IL2 production in PD-L1 positive human Raji cells measured after 24 hrs by Cell titer glo assay
Raji [23] = assay: IL2 production in PD-L1 negative human Raji cells measured after 24 hrs by Cell titer glo assay
[24] = Induction of proliferation of human CD8-positive T cell measured after 24 hrs by Cell titer glo assay

Stability [1]: 99%
Stability [2]: 90%
IC50 [3]: 5 nM
IC50 [4]: 1000 nM
IC50 [5]: 680 nM
IC50 [6]: 4600 nM
IC50 [7]: 2 nM
IC50 [8]: 3 nM
AUC(0-t) at 72 h [11]: 14.8 µM·h
half-life [12]: 22.5 h
clearance [13]: 1.9 mL/min/kg
Vd [14]: 3.9 L/kg
Cmax [15]: 1080 nM
Tmax [16]: 3 h
AUC(0-t) at 72 h [17]: 48 µM·h
bioavailability [18]: 65%
EC50 [19]: 280 nM
EC50 [20]: 520 nM
EC50 [21]: 340 nM
EC50 (Raji [22]): 37 nM
EC50 (Raji [23]): 37 nM
SMILES: Cn1c(=O)c([N+](=O)[O-])c(N2CCN(C(c3ccc(F)cc3)c3ccc(F)cc3)CC2)c2nc(C#N)ccc21
Activity (Mus musculus [9]): inactive
Activity (Mus musculus [10]): Dose-Dependent Effect
EC50 [24]: 65 nM
